Test results: patent US20240294465A1, “NOVEL ANTI-FIBROTIC DRUGS” (HELMHOLTZ ZENTRUM MUNCHEN - DEUTSCHES FORSCHUNGSZENTRUM FUR …, priority 2021, published 2024)

Key:
PAI-1/SERPINE1 = test: Human precision cut lung slices (PCLS) with fibrotic cocktail: immunoblot of secreted PAI-1; type: cell-based; conditions: living human PCLS
Protocol: (§1) PCLS were prepared as described before (31, 32). Shortly, PCLS were prepared from tumor-free peri-tumor tissue. The lung tissue was inflated with 3% agarose solution and solidified at 4° C. Tissue blocks were cut in μm thick PCLS using a vibration microtome Hyrax V50 (Zeiss). PCLS were cultured in DMEM F-12 medium and treated with a profibrotic cocktail, as described before (31), or vehicle, as well as with small molecules or vehicles for 7 days. After culturing and treatments, supernatants were harvested. PCLS were […] washed in PBS and protein was extracted as previously described (33). Briefly, PCLS were pooled in an Eppendorf tube and lysed in 500 μl ice-cold RIPA buffer (50 mM Tris-CI pH 7.4, 150 mM NaCl, 1% NP40, 0.25% Na-deoxycholate) containing 1× Roche complete mini protease inhibitor cocktail (Roche, Cat. #11697498001). After an incubation of 2 hours rotating at 4° C., the lung slices were removed from the lysates and the protein content was measured.
(§2) Cells were scraped off the plastic dish directly into 200 μl ice-cold RIPA buffer containing 1× Roche complete mini protease inhibitor cocktail. […] CXCL/IL-8 concentrations were determined using Human IL-8/CXCL8 DuoSet ELISA (DY208-05) according to the manufacturer's protocol.

[1] = test system: profibrotic gene signatures in phLFs+TGFβ1; test: Microarray transcriptomics and UMAP regulation pattern clustering in phLFs; type: cell-based, human; conditions: phLFs+TGFβ1+example 84
Protocol: Total RNA was isolated PEQGold Total RNA Kit (PeqLab) according to the manufacturer's instructions including gDNA elimination. The Agilent 2100 Bioanalyzer was used to assess RNA quality and RNA with RIN>7 was used for microarray analysis. Total RNA (150 ng) was amplified using the WT PLUS Reagent Kit (Thermo Fisher Scientific Inc., Waltham, USA). Amplified cDNA was hybridized on Human ClariomS arrays (Thermo Fisher Scientific). Staining and scanning (GeneChip Scanner 3000 7G) was done according to manufacturer's instructions. Transcriptome Analysis Console (TAC; version 4.0.0.25; Thermo Fisher Scientific) was used for quality control and to obtain annotated normalized SST-RMA gene-level data. Statistical analyses were performed by utilizing the statistical programming environment R (R Development Core Team Ref1). Genewise testing for differential expression was done employing the paired limma t-test and Benjamini-Hochberg multiple testing correction (FDR<10%). To reduce background, gene sets were filtered using DABG p-values<0.05 in at least one sample per pair and in at least two of three pairs per analysis. […] Then, clusters of genes were extracted. Gene/protein interactions were visualized using the String Database (www.stringdb.org).

[2] = test system: human lung organoids derived from human lung progenitor cells; test: Human lung organoid growth (colony formation efficiency); type: cell-based; conditions: 10 μM, 14 days in culture
CXCL8/IL-8 = test: Human precision cut lung slices (PCLS) with fibrotic cocktail: IL-8 ELISA; type: cell-based; conditions: living human PCLS
Protocol: as §1, §2

SMILES: CCCCOc1ccccc1NC(=O)/C=C/c1ccc(OC)c(OC)c1 [Example 84, (E)-N-(2-butoxyphenyl)-3-(3,4-dimethoxyphenyl)acrylamide]
- secreted PAI-1/SERPINE1 (PAI-1/SERPINE1): diminution of secreted pro-fibrotic PAI-1/SERPINE1
- gene-set enrichment analysis (collagen formation, extracellular matrix organization, smooth-muscle contraction) [1]: negative enrichment for profibrotic gene signatures
- organoid growth [2]: inhibited organoid growth
- viability of lung progenitor cells (calcein / ethidium homodimer III) [2]: many lung progenitor cells are still viable
- CXCL8/IL-8 (ELISA) (CXCL8/IL-8): diminution of pro-fibrotic CXCL8/IL-8
